{
  "source": "ChEMBL document CHEMBL4190183",
  "about": "(Medchemcomm, 2016)",
  "key": {"Mesocricetus auratus [1]": {"species": "Mesocricetus auratus", "assay": "Half life in hamster liver microsomes at 1 uM by LC-MS/MS analysis", "details": "golden Syrian hamster"}, "DNA ligase 1 [2]": {"molecular_target": "T1, DNA ligase 1 (Homo sapiens, UniProt P18858)", "T1 sequence (P18858 whole entry)": "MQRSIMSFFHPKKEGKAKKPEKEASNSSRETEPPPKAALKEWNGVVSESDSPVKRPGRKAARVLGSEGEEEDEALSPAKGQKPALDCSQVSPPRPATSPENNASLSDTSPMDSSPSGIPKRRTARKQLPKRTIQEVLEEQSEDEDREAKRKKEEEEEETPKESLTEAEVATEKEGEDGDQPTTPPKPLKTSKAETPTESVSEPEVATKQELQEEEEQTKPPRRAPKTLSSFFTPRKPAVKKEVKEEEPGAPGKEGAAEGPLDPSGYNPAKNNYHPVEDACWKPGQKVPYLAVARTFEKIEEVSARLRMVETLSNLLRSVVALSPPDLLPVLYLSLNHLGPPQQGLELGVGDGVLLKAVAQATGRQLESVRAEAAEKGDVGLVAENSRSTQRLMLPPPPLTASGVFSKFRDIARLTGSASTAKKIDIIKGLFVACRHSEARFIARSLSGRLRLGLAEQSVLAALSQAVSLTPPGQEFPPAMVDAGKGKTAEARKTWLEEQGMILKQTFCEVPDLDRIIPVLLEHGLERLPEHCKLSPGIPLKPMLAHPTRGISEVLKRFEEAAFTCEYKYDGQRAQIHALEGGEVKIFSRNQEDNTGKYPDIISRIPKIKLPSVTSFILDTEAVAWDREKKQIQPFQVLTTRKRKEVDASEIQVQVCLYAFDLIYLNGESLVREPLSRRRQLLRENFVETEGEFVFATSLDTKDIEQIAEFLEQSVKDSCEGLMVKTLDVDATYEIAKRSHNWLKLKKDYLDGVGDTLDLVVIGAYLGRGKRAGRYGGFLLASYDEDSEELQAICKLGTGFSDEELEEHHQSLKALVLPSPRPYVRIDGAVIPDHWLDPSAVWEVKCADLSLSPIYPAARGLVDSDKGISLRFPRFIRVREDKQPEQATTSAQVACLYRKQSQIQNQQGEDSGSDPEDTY", "assay": "Inhibition of human DNA ligase 1 expressed in Escherichia coli BL21(DE3)RP cells assessed as reduction in fluorescently labelled ds nicked DNA substrate ligation at 100 uM after 30 mins by urea gel based imaging method relative to control"}, "DNA ligase 1 [3]": {"molecular_target": "T1, DNA ligase 1", "assay": "Binding affinity to human full length N-terminal His-tagged DNA ligase 1 expressed in Escherichia coli BL21(DE3)RP cells at 10 uM by fluorescence spectroscopic analysis"}, "MDA-MB-231": {"system": "MDA-MB-231", "assay": "Cytotoxicity against human MDA-MB-231 cells assessed as cell death at 10 uM after 48 hrs by MTT assay relative to control", "format": "functional"}, "[4]": {"assay": "Stability of the compound in simulated gastric fluid at 5 uM at pH 1.2 measured up to 60 mins by LC-MS/MS analysis", "format": "ADME", "details": "simulated gi fluid, pH 1.2, 1 h"}, "HepG2 [5]": {"system": "HepG2", "assay": "Cytotoxicity against human HepG2 cells assessed as decrease in cell viability after 48 hrs by MTT assay", "format": "functional, cell-based"}, "DNA ligase 1 [6]": {"molecular_target": "T1, DNA ligase 1", "assay": "Residual activity of human DNA ligase 1 expressed in Escherichia coli BL21(DE3)RP cells assessed as DNA ligation at 100 uM using fluorescently labelled ds nicked DNA as substrate after 30 mins by urea gel based imaging method relative to control"}, "DNA [7]": {"system": "DNA", "assay": "Inhibition of EtBr binding to Escherichia coli pUC18 DNA up to 400 uM after 30 mins by fluorescence spectroscopic analysis", "format": "nucleic-acid assay"}, "HepG2 [8]": {"system": "HepG2", "assay": "Cell cycle arrest in human HepG2 cells assessed as accumulation at G0/G1 phase at 10 uM after 12 hrs by propidium iodide staining based flow cytometry (reference value: 42.7 +/- 1.5%)", "format": "functional"}, "HepG2 [9]": {"system": "HepG2", "assay": "Induction of apoptosis in human HepG2 cells assessed as increase in p53 expression levels at 10 to 20 uM after 48 hrs by Western blot analysis", "format": "functional, cell-based"}, "HepG2 [10]": {"system": "HepG2", "assay": "Cell cycle arrest in human HepG2 cells assessed as accumulation at G0/G1 phase at 20 uM after 24 hrs by propidium iodide staining based flow cytometry (reference value: 56.8 +/- 1.16%)", "format": "functional"}, "DNA ligase 1 [11]": {"molecular_target": "T1, DNA ligase 1", "assay": "Binding affinity to human full length N-terminal His-tagged DNA ligase 1 expressed in Escherichia coli BL21(DE3)RP cells assessed as destabilization of enzyme-nicked oligo DNA complex after 2 hrs by electrophoretic mobility shift assay"}, "HepG2 [12]": {"system": "HepG2", "assay": "Cytotoxicity against human HepG2 cells assessed as cell death at 10 uM after 48 hrs by MTT assay relative to control", "format": "functional"}, "HepG2 [13]": {"system": "HepG2", "assay": "Antimetastatic activity against human HepG2 cells assessed as wound healing at 20 uM after 12 hrs by microscopic method (reference value: 21%)", "format": "functional"}, "HepG2 [14]": {"system": "HepG2", "assay": "Induction of apoptosis in human HepG2 cells after 48 hrs by Annexin-V/PI staining based flow cytometry", "format": "functional, cell-based"}, "DNA [15]": {"system": "DNA", "assay": "Induction of linearized Escherichia coli pUC18 DNA intercalation up to 600 uM after 30 mins by agarose gel electrophoresis method", "format": "nucleic-acid assay"}, "[16]": {"assay": "Stability of the compound in simulated intestinal fluid at 5 uM at pH 6.8 measured up to 120 mins by LC-MS/MS analysis", "format": "ADME", "details": "simulated gi fluid, pH 6.8, 2 h"}, "HepG2 [17]": {"system": "HepG2", "assay": "Anticlonogenic activity against human HepG2 cells at >= 10 uM incubated for 48 hrs measured after 10 days by crystal violet staining based microscopy", "format": "functional, cell-based"}, "HepG2 [18]": {"system": "HepG2", "assay": "Antimetastatic activity against human HepG2 cells assessed as wound healing at 20 uM after 18 hrs by microscopic method (reference value: 32%)", "format": "functional"}, "DNA ligase 1 [19]": {"molecular_target": "T1, DNA ligase 1", "assay": "Binding affinity to human N-terminal His-tagged DNA ligase 1 DBD expressed in Escherichia coli BL21(DE3)RP cells at 1.25 to 5 uM by CD spectroscopic method"}, "A549": {"system": "A549", "assay": "Cytotoxicity against human A549 cells assessed as cell death at 10 uM after 48 hrs by MTT assay relative to control", "format": "functional"}, "HCT-116": {"system": "HCT-116", "assay": "Cytotoxicity against human HCT116 cells assessed as cell death at 10 uM after 48 hrs by MTT assay relative to control", "format": "functional"}, "DLD-1": {"system": "DLD-1", "assay": "Cytotoxicity against human DLD1 cells assessed as cell death at 10 uM after 48 hrs by MTT assay relative to control", "format": "functional"}, "HepG2 [20]": {"system": "HepG2", "assay": "Antiproliferative activity against human HepG2 cells assessed as decrease in PCNA expression level at 10 to 20 uM after 48 hrs by Western blot analysis", "format": "functional, cell-based"}, "[21]": {"assay": "Aqueous solubility of the compound in triple distilled water at 1 to 1000 uM after 2 hrs by nephelometric method", "format": "physicochemical"}, "HepG2 [22]": {"system": "HepG2", "assay": "Induction of DNA damage in human HepG2 cells assessed as increase in gamma-H2AX expression levels at 10 to 20 uM after 48 hrs by Western blot analysis", "format": "functional, cell-based"}, "Mesocricetus auratus [23]": {"species": "Mesocricetus auratus", "assay": "Metabolic stability in hamster liver microsomes assessed as parent compound remaining at 1 uM after 60 mins in presence of NADPH by LC-MS/MS analysis", "details": "golden Syrian hamster"}, "DNA ligase 1 [24]": {"molecular_target": "T1, DNA ligase 1", "assay": "Inhibition of human DNA ligase 1 expressed in Escherichia coli BL21(DE3)RP cells assessed as reduction in nick sealing activity using fluorescently labelled ds nicked DNA as substrate after 30 mins by urea gel based imaging method"}, "DNA ligase 1 [25]": {"molecular_target": "T1, DNA ligase 1", "assay": "Binding affinity to human N-terminal His-tagged DNA ligase 1 DBD expressed in Escherichia coli BL21(DE3)RP cells at 10 uM by fluorescence spectroscopic analysis"}, "HepG2 [26]": {"system": "HepG2", "assay": "Induction of cell death in human HepG2 cells at 5 uM after 48 hrs by MTT assay", "format": "functional, cell-based"}, "HEK293": {"system": "HEK293", "assay": "Cytotoxicity against HEK293 cells assessed as cell death at 10 uM after 48 hrs by MTT assay relative to control", "format": "cell-based", "details": "human, hek293, 48 h"}, "HepG2 [27]": {"system": "HepG2", "assay": "Cell cycle arrest in human HepG2 cells assessed as accumulation at G0/G1 phase at 20 uM after 12 hrs by propidium iodide staining based flow cytometry (reference value: 42.7 +/- 1.5%)", "format": "functional"}, "HepG2 [28]": {"system": "HepG2", "assay": "Cell cycle arrest in human HepG2 cells assessed as accumulation at G0/G1 phase at 10 uM after 24 hrs by propidium iodide staining based flow cytometry (reference value: 56.8 +/- 1.16%)", "format": "functional"}, "HepG2 [29]": {"system": "HepG2", "assay": "Antimetastatic activity against human HepG2 cells assessed as wound healing at 10 uM after 18 hrs by microscopic method (reference value: 32%)", "format": "functional"}, "DNA ligase 1 [30]": {"molecular_target": "T1, DNA ligase 1", "assay": "Binding affinity to human full length N-terminal His-tagged DNA ligase 1 expressed in Escherichia coli BL21(DE3)RP cells at 1.25 to 5 uM by CD spectroscopic method"}, "Mesocricetus auratus [31]": {"species": "Mesocricetus auratus", "assay": "Intrinsic clearance in hamster liver microsomes at 1 uM by LC-MS/MS analysis", "details": "golden Syrian hamster"}, "HepG2 [32]": {"system": "HepG2", "assay": "Antimetastatic activity against human HepG2 cells assessed as wound healing at 10 uM after 12 hrs by microscopic method (reference value: 21%)", "format": "functional"}, "HepG2 [33]": {"system": "HepG2", "assay": "Synergistic cytotoxicity against human HepG2 cells assessed as induction of cell death at 5 uM after 48 hrs in presence of 0.625 uM doxorubicin by MTT assay", "format": "functional, cell-based"}, "[34]": {"assay": "Retention time of the compound by LC-MS/MS analysis", "format": "physicochemical"}, "[35]": {"assay": "Protein binding in hamster plasma at 10 uM at pH 7.4 incubated for 30 mins measured after 10 hrs by LC-MS/MS based equilibrium dialysis method", "format": "ADME, cell-free, Cricetulus griseus", "details": "chinese hamster, read-out: PPB"}},
  "note": "Calls of active or inactive are those of the source. The rule behind the calls is not given here.",
  "data": [
    {"smiles": "CCOC(=O)C1=C(C)NC(=O)NC1c1cc(/C=N/NC(=O)Nc2cccc(OC)c2)c(O)c(C(C)(C)C)c1", "note": "(configuration not stated)", "values": [
      {"measurement": "half-life at 1 µM", "setting": "Mesocricetus auratus [1]", "value": 20.8, "unit": "min"},
      {"measurement": "inhibition", "setting": "DNA ligase 1 [2]", "value": 82.7, "unit": "%"},
      {"measurement": "Activity", "setting": "DNA ligase 1 [3]", "value": "Active"},
      {"measurement": "Activity", "setting": "MDA-MB-231", "value": 28.4, "unit": "%"},
      {"measurement": "Stability", "setting": "[4]", "value": "Stable"},
      {"measurement": "Activity", "setting": "HepG2 [5]", "value": "Dose-dependent effect"},
      {"measurement": "IC50", "setting": "HepG2 [5]; HepG2, 48 h", "value": 10.6, "unit": "µM"},
      {"measurement": "ligation", "setting": "DNA ligase 1 [6]", "value": 17.4, "unit": "%"},
      {"measurement": "inhibition", "setting": "DNA [7]", "value": "inactive"},
      {"measurement": "Activity", "setting": "HepG2 [8]", "value": 59.1, "unit": "%"},
      {"measurement": "Activity", "setting": "HepG2 [9]", "value": "Active"},
      {"measurement": "Activity", "setting": "HepG2 [10]", "value": 84.8, "unit": "%"},
      {"measurement": "Activity", "setting": "DNA ligase 1 [11]", "value": "Dose-dependent effect"},
      {"measurement": "Activity", "setting": "HepG2 [12]", "value": 52.2, "unit": "%"},
      {"measurement": "Activity", "setting": "HepG2 [13]", "value": 7.5, "unit": "%"},
      {"measurement": "Activity", "setting": "HepG2 [14]", "value": "Dose-dependent effect"},
      {"measurement": "Activity", "setting": "DNA [15]", "value": "inactive"},
      {"measurement": "Stability", "setting": "[16]", "value": "Stable"},
      {"measurement": "Activity", "setting": "HepG2 [17]", "value": "Active"},
      {"measurement": "Activity", "setting": "HepG2 [18]", "value": 5.5, "unit": "%"},
      {"measurement": "Activity", "setting": "DNA ligase 1 [19]", "value": "Active"},
      {"measurement": "Activity", "setting": "A549", "value": 18.1, "unit": "%"},
      {"measurement": "Activity", "setting": "HCT-116", "value": 18.2, "unit": "%"},
      {"measurement": "Activity", "setting": "DLD-1", "value": 29.4, "unit": "%"},
      {"measurement": "Activity", "setting": "HepG2 [20]", "value": "Active"},
      {"measurement": "solubility kinetic at 2 h", "setting": "[21]", "value": 30, "unit": "µM"},
      {"measurement": "Activity", "setting": "HepG2 [22]", "value": "Active"},
      {"measurement": "remaining at 1 h, 1 µM", "setting": "Mesocricetus auratus [23]", "value": 12.9, "unit": "%"},
      {"measurement": "IC50", "setting": "DNA ligase 1 [24]", "value": 12.4, "unit": "µM"},
      {"measurement": "inhibition", "setting": "DNA ligase 1 [24]", "value": "Dose-dependent effect"},
      {"measurement": "Activity", "setting": "DNA ligase 1 [25]", "value": "Active"},
      {"measurement": "Activity", "setting": "HepG2 [26]", "value": "Active"},
      {"measurement": "Activity", "setting": "HEK293", "value": 11.7, "unit": "%"},
      {"measurement": "Activity", "setting": "HepG2 [27]", "value": 64, "unit": "%"},
      {"measurement": "Activity", "setting": "HepG2 [28]", "value": 68.1, "unit": "%"},
      {"measurement": "Activity", "setting": "HepG2 [29]", "value": 16.4, "unit": "%"},
      {"measurement": "Activity", "setting": "DNA ligase 1 [30]", "value": "Active"},
      {"measurement": "CLH", "setting": "Mesocricetus auratus [31]", "value": 33.29, "unit": "µL/min/mg"},
      {"measurement": "Activity", "setting": "HepG2 [32]", "value": 11.2, "unit": "%"},
      {"measurement": "Activity", "setting": "HepG2 [33]", "value": "Active"},
      {"measurement": "Retention_time", "setting": "[34]", "value": 2.98, "unit": "min"},
      {"measurement": "fraction unbound at 10 h, 10 µM", "setting": "[35]", "value": 0.0098}
    ]}
  ]
}
